The results in this text go back to patent US20250136629A1, “SELF-ASSEMBLED NANOPARTICLES FOR PHOTOTHERMAL THERAPY” (The University of Hong Kong, priority 2023, published 2025).

A short description of the data set: Air stability of the complexes (observation). Format: physicochemical.

Consider [Fe(II)-ppy-tpy-Cl] [Complex R], for which the air stability result was “slightly air-sensitive in both the solid and solution states”.
